Source: the NIST ThermoML archive (doi:10.1021/acs.jced.7b00024)
Numbers after ± are expanded uncertainties.

Experiment: mean ionic activity coefficient (dimensionless); mn = molality of the nth substance listed, in mol/kg
Details: 298.15 K, 100 kPa, Liquid, Potentiometry

For `[Cl-].[Cs+]` [cesium chloride] + O, the “mean ionic activity coefficient” value (m1 = 0.0085) was 0.905 ± 0.041, the “mean ionic activity coefficient” value (m1 = 0.01) was 0.898 ± 0.041 and the “mean ionic activity coefficient” value (m1 = 0.028) was 0.843 ± 0.041. For the same molecule, the “mean ionic activity coefficient” value (m1 = 0.0297) was 0.84 ± 0.041, the “mean ionic activity coefficient” value (m1 = 0.0574) was 0.794 ± 0.041 and the “mean ionic activity coefficient” value (m1 = 0.0706) was 0.778 ± 0.041. The “mean ionic activity coefficient” value (m1 = 0.0969) was 0.753 ± 0.041, the “mean ionic activity coefficient” value (m1 = 0.1497) was 0.715 ± 0.041 and the “mean ionic activity coefficient” value (m1 = 0.1937) was 0.692 ± 0.041. The “mean ionic activity coefficient” value (m1 = 0.2985) was 0.652 ± 0.041, the “mean ionic activity coefficient” value (m1 = 0.3873) was 0.628 ± 0.041 and the “mean ionic activity coefficient” value (m1 = 0.5981) was 0.588 ± 0.041. For the same molecule, the “mean ionic activity coefficient” value (m1 = 0.6802) was 0.577 ± 0.041, the “mean ionic activity coefficient” value (m1 = 0.9033) was 0.552 ± 0.041 and the “mean ionic activity coefficient” value (m1 = 1.073) was 0.538 ± 0.041. For the same molecule, the “mean ionic activity coefficient” value (m1 = 1.504) was 0.513 ± 0.041, the “mean ionic activity coefficient” value (m1 = 1.56) was 0.51 ± 0.041 and the “mean ionic activity coefficient” value (m1 = 2.106) was 0.492 ± 0.041. The “mean ionic activity coefficient” value (m1 = 2.152) was 0.491 ± 0.041, the “mean ionic activity coefficient” value (m1 = 2.947) was 0.477 ± 0.041 and the “mean ionic activity coefficient” value (m1 = 3.008) was 0.476 ± 0.041. For the same molecule, the “mean ionic activity coefficient” value (m1 = 3.944) was 0.472 ± 0.041 and the “mean ionic activity coefficient” value (m1 = 4.002) was 0.471 ± 0.041.
